Patent publication US8227620B2, “Pharmaceutical compounds” (Neuroscienze Pharmaness S.C. A.R.L., priority 2004, dated 2012)

Assays:
CB2 receptors = target: T1, CB2 receptors (Rattus norvegicus, UniProt Q9QZN9); assay: Radioreceptor binding, [3H]-CP-55,940 displacement, rat spleen membranes; settings: 1 nM [3H]-CP55,940
T1 construct: the brain in toto (cerebellum excluded) and the spleen were rapidely dissected; from tissue; host or cells: rat spleen membranes
T1 sequence (Q9QZN9 1-360): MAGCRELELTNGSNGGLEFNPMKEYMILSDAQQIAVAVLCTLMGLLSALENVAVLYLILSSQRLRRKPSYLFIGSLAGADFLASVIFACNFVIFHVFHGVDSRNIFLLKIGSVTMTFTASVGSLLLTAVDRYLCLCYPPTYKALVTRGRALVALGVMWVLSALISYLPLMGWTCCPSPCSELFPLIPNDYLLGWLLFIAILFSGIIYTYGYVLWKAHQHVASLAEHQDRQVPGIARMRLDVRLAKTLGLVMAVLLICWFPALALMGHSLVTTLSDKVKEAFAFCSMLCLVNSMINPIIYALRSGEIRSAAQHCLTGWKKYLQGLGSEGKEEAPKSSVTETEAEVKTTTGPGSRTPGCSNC
Excerpt: (§1) The receptorial binding technique allows indeed to establish if and with what affinity and specificity a determined compound binds itself to a particular receptor. To evaluate the affinity of a determined compound towards a particular receptor, a particular preparation of the tissue wherein the receptors are present is used and the tested compound is made to compete with another compound, treated so as to make it radioactive and of which the affinity for the receptor is known. […] The reading of the radioactivity present in the receptor-compound complex allows furthermore to precisely calculate the compound amount bound to the receptor. By this method it is therefore possible to rapidely identify the affinity of a new compound towards a specific receptor and thus to make predictions on its pharmacological activity. By repeating the same experimental scheme it is possible to evaluate the affinity of the compound towards other kinds of receptors and thus establish the specificity degree.
(§2) Food and water were available ad libitum.
(§3) The animals were sacrificed by cervical dislocation, the brain in toto (cerebellum excluded) and the spleen were rapidely dissected and maintained in ice.
(§4) The tissue was homogenized in 15 volumes (weight/volume) of TME buffer (50 mM Tris, 1 mM EDTA e 3 mM MgCl2, pH 7.4) by an Ultra-Turrax and centrifuged for 10 minutes at 1086×g in a centrifuge cooled at 4° C. The resulting supernatant was centrifuged at 45,000×g for 30 min at 4° C. by using a Beckman SW41 rotor and the final pellet was resuspended in 50 volumes of TME.
(§5) The obtained membranes (50-80 μg of proteins) were incubated in the presence of 1 nM di [^3H]-CP55,940 for 1 h at 30° C. in a final volume of 0.5 ml of TME buffer containing 5 mg/ml of bovine serum albumin (BSA). The non specific binding was measured in the presence of CP55,940 at the 1 μM concentration. […]
(§6) The radioactivity present in the filters was measured by a scintillator spectrophotometer (Tricarb 2100, Packard, Meridien, USA). […]

CB1 receptors = CB1 receptors (Rattus norvegicus, UniProt P20272); assay: Radioreceptor binding, [3H]-CP-55,940 displacement, rat brain membranes; design: from tissue; host or cells: whole animal (rat), central CB1 receptors of the hypothalamus; settings: 1 nM [3H]-CP55,940
Sequence of CB1 receptors (P20272 whole entry): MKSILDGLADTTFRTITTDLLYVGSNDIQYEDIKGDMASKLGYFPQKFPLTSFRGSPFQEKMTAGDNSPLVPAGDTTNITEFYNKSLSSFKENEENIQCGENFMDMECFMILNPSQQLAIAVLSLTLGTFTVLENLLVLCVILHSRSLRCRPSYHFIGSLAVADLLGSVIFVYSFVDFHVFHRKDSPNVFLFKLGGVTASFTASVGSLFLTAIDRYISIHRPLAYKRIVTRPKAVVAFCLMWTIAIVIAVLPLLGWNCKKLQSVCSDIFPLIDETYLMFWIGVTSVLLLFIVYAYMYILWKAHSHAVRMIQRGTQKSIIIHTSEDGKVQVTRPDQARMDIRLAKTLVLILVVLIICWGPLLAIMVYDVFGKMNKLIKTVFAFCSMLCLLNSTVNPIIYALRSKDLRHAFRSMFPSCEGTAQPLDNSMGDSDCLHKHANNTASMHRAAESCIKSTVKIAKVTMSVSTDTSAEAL
Excerpt: as §1, §2, §3, §4, §5, §6

In the case of `Cc1c(C(=O)NN2CCCCC2)nn(-c2ccc(Cl)cc2Cl)c1-c1ccc(Cl)s1` [Example 3.1b, N-piperidinyl-5-(5-Chloro-thiophen-2-yl)-1-(2′,4′-dichloro-phenyl)-4-methyl-1H-pyrazol-3-carboxamide], the Ki (CB2 receptors) is reported as 476 ± 3 nM and the Ki (CB1 receptors) is reported as 35 ± 2.5 nM.
In the case of “N-pyrrolidinyl-5-(5-Chloro-thiophen-2-yl)-1-(2,4′-dichloro-phenyl)-4-methyl-1H-pyrazol-3-carboxamide [Example 3.1d]”, the Ki (CB2 receptors) is reported as 699 ± 21 nM and the Ki (CB1 receptors) is reported as 63 ± 7.2 nM.
